{
  "source": "patent US11231416B2",
  "about": "“Virus-like particle (VLP) based small molecule-protein interaction trap” (VIB VZW, priority 2015, dated 2022)",
  "experiment_in_all_cases": "Viral trapping in VLPs, MS analysis",
  "assay_type_in_all_cases": "binding",
  "key": {"ATL2": {"biological_target": "T1, ATL2 (Homo sapiens, UniProt Q8NHH9)", "T1 construct": "endogenous in cells; host or cells: HEK293T", "conditions": "all proteins (incl. low confidence identifications)", "experimental": "(§1) For mass spectrometry, 10^7 HEK293T cells were seeded in five flasks (75 cm^2) and transfected the next day with a total of 15 μg DNA per flask using polyethylene imine reagent. The following DNA quantities were used per flask: 7.5 μg of GAG-eDHFR, 5.4 μg of mock vector and 2.1 μg of a 50/50 mix of pMD2.G and pcDNA3-FLAG-VSV-G. The small molecule fusions were added immediately after transfection to the producing cells at a concentration of 1 μM. The same dilution of dimethyl sulfoxide (DMSO) was added in control experiments to control the effect of this chemical on the cells. The cellular supernatant was harvested after 32 hours and was centrifuged for 3 minutes at 450×g to remove cellular debris. The cleared supernatant was then filtered using 0.45 μm filters (Millipore). A total of 100 μl MyOne™ Streptavidin T1 beads (Life Technologies) pre-loaded with 10 μg ANTI-FLAG® BioM2-Biotin antibody (Sigma-Aldrich®) was used to bind the tagged particles. Particles were allowed to bind for 2 hours by end-over-end rotation. The total supernatant was processed in three consecutive binding steps. Bead-particle complexes were washed once with washing buffer (TWB: 20 mM Tris-HCl pH 7.5, 150 mM NaCl) and were then eluted with FLAG peptide (200 μg/ml in TWB) and lysed by addition of SDS to a final concentration of 0.1%. After 5 minutes, SDS was removed using HiPPR Detergent Removal Spin Columns (Pierce, Thermo Scientific) followed by boiling and overnight digestion with 0.5 μg sequence-grade trypsin (Promega). After acidification (0.1% TFA final), the peptides were separated by nano-LC and directly analyzed with a Q Exactive instrument (Thermo Scientific).\n(§2) For tamoxifen, four biological repeats were performed where the cells were treated with MTX-PEG6-tamoxifen after transfection. The obtained protein lists after viral trapping and MS analysis were challenged with protein lists coming from the four DMSO controls, the 19 control experiments and the lists obtained for the MTX-PEG6-simvastatin and MTX-PEG6-reversine (see below) for a total of 30 samples."}, "CGN1": {"biological_target": "T2, CGN1 (Bos taurus, UniProt P23805)", "T2 construct": "host or cells: VLPs from HEK293T supernatant", "conditions": "all proteins (incl. low confidence identifications)", "experimental": "as §1, §2"}, "CYP51A1": {"biological_target": "T3, CYP51A1 (Homo sapiens, UniProt Q16850)", "T3 construct": "endogenous in cells; host or cells: HEK293T", "conditions": "all proteins (incl. low confidence identifications)", "experimental": "as §1, §2"}, "EI24": {"biological_target": "T4, EI24 (Homo sapiens, UniProt O14681)", "T4 construct": "endogenous in cells; host or cells: HEK293T", "conditions": "all proteins (incl. low confidence identifications)", "experimental": "as §1, §2"}, "ENPP4": {"biological_target": "T5, ENPP4 (Homo sapiens, UniProt Q9Y6X5)", "T5 construct": "endogenous in cells; host or cells: HEK293T", "conditions": "all proteins (incl. low confidence identifications)", "experimental": "as §1, §2"}, "ESYT1": {"biological_target": "T6, ESYT1 (Homo sapiens, UniProt Q9BSJ8)", "T6 construct": "endogenous in cells; host or cells: HEK293T", "T6 sequence (Q9BSJ8 whole entry)": "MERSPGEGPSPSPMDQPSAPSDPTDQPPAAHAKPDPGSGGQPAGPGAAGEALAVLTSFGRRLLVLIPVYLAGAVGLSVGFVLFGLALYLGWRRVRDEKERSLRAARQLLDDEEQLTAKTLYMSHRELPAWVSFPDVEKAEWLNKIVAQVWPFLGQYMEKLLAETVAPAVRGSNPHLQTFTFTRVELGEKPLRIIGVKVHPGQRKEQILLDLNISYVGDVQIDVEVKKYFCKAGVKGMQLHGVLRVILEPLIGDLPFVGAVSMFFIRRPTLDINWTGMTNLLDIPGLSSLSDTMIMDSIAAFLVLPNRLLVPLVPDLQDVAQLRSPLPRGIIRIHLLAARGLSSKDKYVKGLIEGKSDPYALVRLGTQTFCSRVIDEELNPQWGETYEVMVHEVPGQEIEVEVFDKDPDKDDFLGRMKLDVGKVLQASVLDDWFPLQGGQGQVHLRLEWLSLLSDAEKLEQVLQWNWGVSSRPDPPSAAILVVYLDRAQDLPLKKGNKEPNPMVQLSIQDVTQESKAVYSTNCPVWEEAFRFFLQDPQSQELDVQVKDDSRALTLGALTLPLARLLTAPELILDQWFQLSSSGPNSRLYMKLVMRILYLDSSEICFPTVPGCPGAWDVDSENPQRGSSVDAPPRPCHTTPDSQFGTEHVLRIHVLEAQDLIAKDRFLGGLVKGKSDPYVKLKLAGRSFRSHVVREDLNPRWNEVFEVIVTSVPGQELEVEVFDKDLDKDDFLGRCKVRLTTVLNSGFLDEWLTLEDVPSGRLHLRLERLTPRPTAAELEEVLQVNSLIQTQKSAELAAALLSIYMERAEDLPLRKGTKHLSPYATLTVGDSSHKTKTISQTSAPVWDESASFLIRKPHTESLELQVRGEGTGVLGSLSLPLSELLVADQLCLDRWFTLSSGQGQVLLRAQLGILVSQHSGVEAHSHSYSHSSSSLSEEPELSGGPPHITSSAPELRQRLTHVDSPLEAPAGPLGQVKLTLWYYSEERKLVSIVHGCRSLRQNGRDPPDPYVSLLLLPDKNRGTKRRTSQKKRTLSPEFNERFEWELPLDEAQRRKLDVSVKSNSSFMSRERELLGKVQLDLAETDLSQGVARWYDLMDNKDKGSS", "experimental": "as §1, §2"}, "ESYT2": {"biological_target": "T7, ESYT2 (Homo sapiens, UniProt A0FGR8)", "T7 construct": "endogenous in cells; host or cells: HEK293T", "T7 sequence (A0FGR8 whole entry)": "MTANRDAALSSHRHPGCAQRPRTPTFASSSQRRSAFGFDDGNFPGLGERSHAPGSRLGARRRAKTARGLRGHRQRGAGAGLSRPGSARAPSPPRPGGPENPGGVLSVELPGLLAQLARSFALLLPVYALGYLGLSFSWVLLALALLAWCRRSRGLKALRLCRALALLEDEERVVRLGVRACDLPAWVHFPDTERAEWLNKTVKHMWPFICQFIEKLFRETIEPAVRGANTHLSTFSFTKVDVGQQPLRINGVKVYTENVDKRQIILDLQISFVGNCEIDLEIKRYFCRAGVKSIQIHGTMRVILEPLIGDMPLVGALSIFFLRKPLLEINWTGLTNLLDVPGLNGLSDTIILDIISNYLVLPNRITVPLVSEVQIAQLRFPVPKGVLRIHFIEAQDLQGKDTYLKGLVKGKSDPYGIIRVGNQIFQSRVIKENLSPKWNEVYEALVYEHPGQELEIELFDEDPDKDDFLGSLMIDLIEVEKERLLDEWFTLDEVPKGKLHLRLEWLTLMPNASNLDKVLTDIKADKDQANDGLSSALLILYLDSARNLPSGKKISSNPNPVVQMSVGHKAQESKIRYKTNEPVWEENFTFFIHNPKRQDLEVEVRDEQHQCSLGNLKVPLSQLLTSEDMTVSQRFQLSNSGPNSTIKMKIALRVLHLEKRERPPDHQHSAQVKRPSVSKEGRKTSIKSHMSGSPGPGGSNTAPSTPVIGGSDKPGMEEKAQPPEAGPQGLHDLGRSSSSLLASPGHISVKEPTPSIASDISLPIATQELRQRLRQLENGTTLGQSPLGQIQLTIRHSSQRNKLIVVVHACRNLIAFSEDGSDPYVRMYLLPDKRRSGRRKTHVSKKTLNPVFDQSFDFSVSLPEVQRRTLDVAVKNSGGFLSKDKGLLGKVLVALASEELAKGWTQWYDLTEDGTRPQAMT", "experimental": "as §1, §2"}, "ILVBL": {"biological_target": "T8, ILVBL (Homo sapiens, UniProt A1L0T0)", "T8 construct": "endogenous in cells; host or cells: HEK293T", "conditions": "all proteins (incl. low confidence identifications)", "experimental": "as §1, §2"}, "ITPRIPL1": {"biological_target": "T9, ITPRIPL1 (Homo sapiens, UniProt Q6GPH6)", "T9 construct": "endogenous in cells; host or cells: HEK293T", "conditions": "all proteins (incl. low confidence identifications)", "experimental": "as §1, §2"}, "LRRC59": {"biological_target": "T10, LRRC59 (Homo sapiens, UniProt Q96AG4)", "T10 construct": "endogenous in cells; host or cells: HEK293T", "conditions": "all proteins (incl. low confidence identifications)", "experimental": "as §1, §2"}, "MINK1": {"biological_target": "T11, MINK1 (Homo sapiens, UniProt Q8N4C8)", "T11 construct": "endogenous in cells; host or cells: HEK293T", "conditions": "all proteins (incl. low confidence identifications)", "experimental": "as §1, §2"}, "PCSK5": {"biological_target": "T12, PCSK5 (Homo sapiens, UniProt Q92824)", "T12 construct": "endogenous in cells; host or cells: HEK293T", "conditions": "all proteins (incl. low confidence identifications)", "experimental": "as §1, §2"}, "PRAF2": {"biological_target": "T13, PRAF2 (Homo sapiens, UniProt O60831)", "T13 construct": "endogenous in cells; host or cells: HEK293T", "conditions": "all proteins (incl. low confidence identifications)", "experimental": "as §1, §2"}, "REEP6": {"biological_target": "T14, REEP6 (Homo sapiens, UniProt Q96HR9)", "T14 construct": "endogenous in cells; host or cells: HEK293T", "T14 sequence (Q96HR9 1-184 isoform Q96HR9-2)": "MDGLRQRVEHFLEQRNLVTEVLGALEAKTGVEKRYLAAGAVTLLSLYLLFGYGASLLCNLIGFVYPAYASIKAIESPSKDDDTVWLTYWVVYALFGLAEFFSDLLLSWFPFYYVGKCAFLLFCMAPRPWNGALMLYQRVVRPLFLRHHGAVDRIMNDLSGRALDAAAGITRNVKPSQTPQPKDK", "experimental": "as §1, §2"}, "RTN3": {"biological_target": "T15, RTN3 (Homo sapiens, UniProt O95197)", "T15 construct": "endogenous in cells; host or cells: HEK293T", "conditions": "all proteins (incl. low confidence identifications)", "experimental": "as §1, §2"}, "SEC61G": {"biological_target": "T16, SEC61G (Homo sapiens, UniProt P60059)", "T16 construct": "endogenous in cells; host or cells: HEK293T", "T16 sequence (P60059 whole entry)": "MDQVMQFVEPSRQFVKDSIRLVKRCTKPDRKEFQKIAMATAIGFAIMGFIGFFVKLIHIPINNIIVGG", "T16 sequence (P61619 whole entry partner)": "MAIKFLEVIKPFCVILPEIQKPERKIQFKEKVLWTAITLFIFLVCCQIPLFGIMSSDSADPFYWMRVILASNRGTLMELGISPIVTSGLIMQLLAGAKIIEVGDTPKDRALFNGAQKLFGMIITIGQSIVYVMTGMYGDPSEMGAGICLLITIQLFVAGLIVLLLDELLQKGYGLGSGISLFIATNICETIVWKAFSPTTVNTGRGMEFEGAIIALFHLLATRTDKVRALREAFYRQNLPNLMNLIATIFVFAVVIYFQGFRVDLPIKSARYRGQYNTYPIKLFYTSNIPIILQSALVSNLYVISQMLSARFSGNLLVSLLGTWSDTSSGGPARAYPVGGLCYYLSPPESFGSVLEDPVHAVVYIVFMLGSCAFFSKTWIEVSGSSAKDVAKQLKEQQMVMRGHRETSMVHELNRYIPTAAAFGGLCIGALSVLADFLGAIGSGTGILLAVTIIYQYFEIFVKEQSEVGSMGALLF", "T16 sequence (P60468 2-96 partner limits assumed)": "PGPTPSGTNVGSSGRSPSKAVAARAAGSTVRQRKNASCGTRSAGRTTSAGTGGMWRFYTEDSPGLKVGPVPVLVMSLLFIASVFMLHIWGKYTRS", "experimental": "as §1, §2"}, "SEMA4G": {"biological_target": "T17, SEMA4G (Homo sapiens, UniProt Q9NTN9)", "T17 construct": "endogenous in cells; host or cells: HEK293T", "conditions": "all proteins (incl. low confidence identifications)", "experimental": "as §1, §2"}, "SSNA1": {"biological_target": "T18, SSNA1 (Homo sapiens, UniProt O43805)", "T18 construct": "endogenous in cells; host or cells: HEK293T", "T18 sequence (O43805 whole entry)": "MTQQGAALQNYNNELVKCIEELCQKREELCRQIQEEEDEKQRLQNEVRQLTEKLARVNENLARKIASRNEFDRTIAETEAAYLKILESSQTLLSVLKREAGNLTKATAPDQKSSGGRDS", "experimental": "as §1, §2"}, "SSR3": {"biological_target": "T19, SSR3 (Homo sapiens, UniProt Q9UNL2)", "T19 construct": "endogenous in cells; host or cells: HEK293T", "conditions": "all proteins (incl. low confidence identifications)", "experimental": "as §1, §2"}, "TBL2": {"biological_target": "T20, TBL2 (Homo sapiens, UniProt Q9Y4P3)", "T20 construct": "endogenous in cells; host or cells: HEK293T", "T20 sequence (Q9Y4P3 whole entry)": "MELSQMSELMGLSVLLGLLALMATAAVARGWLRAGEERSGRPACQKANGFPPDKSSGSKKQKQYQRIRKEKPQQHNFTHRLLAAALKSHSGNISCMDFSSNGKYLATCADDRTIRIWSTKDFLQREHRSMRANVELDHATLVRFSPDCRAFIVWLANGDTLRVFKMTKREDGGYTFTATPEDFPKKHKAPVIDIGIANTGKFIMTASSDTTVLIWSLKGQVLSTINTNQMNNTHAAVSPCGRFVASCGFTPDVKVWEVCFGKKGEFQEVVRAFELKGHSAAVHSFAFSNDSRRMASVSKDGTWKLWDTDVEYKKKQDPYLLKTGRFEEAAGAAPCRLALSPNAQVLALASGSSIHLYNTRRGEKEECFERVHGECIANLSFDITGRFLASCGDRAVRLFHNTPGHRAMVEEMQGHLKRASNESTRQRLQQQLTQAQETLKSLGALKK", "experimental": "as §1, §2"}, "TMPRSS13": {"biological_target": "T21, TMPRSS13 (Homo sapiens, UniProt Q9BYE2)", "T21 construct": "endogenous in cells; host or cells: HEK293T", "T21 sequence (Q9BYE2 whole entry)": "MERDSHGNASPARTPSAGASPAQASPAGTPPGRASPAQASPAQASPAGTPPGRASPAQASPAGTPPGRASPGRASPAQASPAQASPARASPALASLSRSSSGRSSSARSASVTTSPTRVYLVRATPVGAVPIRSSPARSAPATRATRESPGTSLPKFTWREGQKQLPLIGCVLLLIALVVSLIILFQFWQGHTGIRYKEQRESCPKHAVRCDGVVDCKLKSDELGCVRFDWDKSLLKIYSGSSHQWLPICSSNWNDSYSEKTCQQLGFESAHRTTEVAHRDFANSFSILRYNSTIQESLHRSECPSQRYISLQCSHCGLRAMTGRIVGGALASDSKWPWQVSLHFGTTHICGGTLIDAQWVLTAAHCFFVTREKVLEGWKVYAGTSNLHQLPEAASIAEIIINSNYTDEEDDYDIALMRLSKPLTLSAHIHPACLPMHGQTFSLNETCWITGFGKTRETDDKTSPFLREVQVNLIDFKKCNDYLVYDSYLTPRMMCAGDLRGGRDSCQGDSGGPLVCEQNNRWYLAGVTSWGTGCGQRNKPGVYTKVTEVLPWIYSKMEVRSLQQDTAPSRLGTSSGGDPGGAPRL", "conditions": "all proteins (incl. low confidence identifications)", "experimental": "as §1, §2"}, "UBQLN2": {"biological_target": "T22, UBQLN2 (Homo sapiens, UniProt Q9UHD9)", "T22 construct": "endogenous in cells; host or cells: HEK293T", "T22 sequence (Q9UHD9 whole entry)": "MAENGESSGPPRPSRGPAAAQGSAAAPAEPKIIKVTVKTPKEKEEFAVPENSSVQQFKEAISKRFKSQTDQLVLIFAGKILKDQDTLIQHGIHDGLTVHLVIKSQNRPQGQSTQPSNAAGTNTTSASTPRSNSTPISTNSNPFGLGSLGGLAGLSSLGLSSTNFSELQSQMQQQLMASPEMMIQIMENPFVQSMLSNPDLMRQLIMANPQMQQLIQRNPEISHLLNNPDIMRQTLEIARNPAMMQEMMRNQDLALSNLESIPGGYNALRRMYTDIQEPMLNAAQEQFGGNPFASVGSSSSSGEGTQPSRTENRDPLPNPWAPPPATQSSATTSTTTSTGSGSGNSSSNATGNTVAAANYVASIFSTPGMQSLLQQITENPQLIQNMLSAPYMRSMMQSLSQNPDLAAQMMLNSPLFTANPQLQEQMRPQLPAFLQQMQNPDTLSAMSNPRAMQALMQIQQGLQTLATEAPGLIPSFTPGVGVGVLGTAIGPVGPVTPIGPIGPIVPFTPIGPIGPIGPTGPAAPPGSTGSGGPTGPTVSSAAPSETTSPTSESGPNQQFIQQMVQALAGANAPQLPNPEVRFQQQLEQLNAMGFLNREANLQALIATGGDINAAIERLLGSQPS", "experimental": "as §1, §2"}, "VAPA": {"biological_target": "T23, VAPA (Homo sapiens, UniProt Q9P0L0)", "T23 construct": "endogenous in cells; host or cells: HEK293T", "T23 sequence (Q9P0L0 whole entry)": "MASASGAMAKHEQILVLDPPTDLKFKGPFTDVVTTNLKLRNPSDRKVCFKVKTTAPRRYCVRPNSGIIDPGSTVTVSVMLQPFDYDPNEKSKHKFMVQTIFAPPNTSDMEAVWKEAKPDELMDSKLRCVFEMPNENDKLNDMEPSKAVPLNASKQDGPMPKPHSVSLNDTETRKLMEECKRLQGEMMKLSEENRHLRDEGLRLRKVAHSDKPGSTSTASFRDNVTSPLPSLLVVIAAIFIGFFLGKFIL", "experimental": "as §1, §2"}, "ZMPSTE24": {"biological_target": "T24, ZMPSTE24 (Homo sapiens, UniProt O75844)", "T24 construct": "endogenous in cells; host or cells: HEK293T", "conditions": "all proteins (incl. low confidence identifications)", "experimental": "as §1, §2"}, "[1]": {"conditions": "all proteins (incl. low confidence identifications)"}, "[2]": {"conditions": "proteins identified with >1 peptide (high confidence)"}},
  "data": [
    {"smiles": "CCC(=C(c1ccccc1)c1ccc(OCCN(C)Cc2cn(CCOCCOCCOCCOCCOCCNC(=O)CCC(NC(=O)c3ccc(N(C)Cc4cnc5nc(N)nc(N)c5n4)cc3)C(=O)O)nn2)cc1)c1ccccc1", "note": "(centres unmarked) [MTX-PEG6-tamoxifen]", "values": [
      {"measurement": "Recurrence (x/4)", "setting": "ATL2", "value": 1, "unit": "x/4"},
      {"measurement": "Recurrence (x/4)", "setting": "CGN1", "value": 1, "unit": "x/4"},
      {"measurement": "Recurrence (x/4)", "setting": "CYP51A1", "value": 1, "unit": "x/4"},
      {"measurement": "Recurrence (x/4)", "setting": "EI24", "value": 2, "unit": "x/4"},
      {"measurement": "Recurrence (x/4)", "setting": "ENPP4", "value": 1, "unit": "x/4"},
      {"measurement": "Recurrence (x/4)", "setting": "ESYT1; [1]", "value": 1, "unit": "x/4"},
      {"measurement": "Recurrence (x/4)", "setting": "ESYT1; [2]", "value": 1, "unit": "x/4"},
      {"measurement": "Recurrence (x/4)", "setting": "ESYT2; [1]", "value": 1, "unit": "x/4"},
      {"measurement": "Recurrence (x/4)", "setting": "ESYT2; [2]", "value": 1, "unit": "x/4"},
      {"measurement": "Recurrence (x/4)", "setting": "ILVBL", "value": 1, "unit": "x/4"},
      {"measurement": "Recurrence (x/4)", "setting": "ITPRIPL1", "value": 1, "unit": "x/4"},
      {"measurement": "Recurrence (x/4)", "setting": "LRRC59", "value": 1, "unit": "x/4"},
      {"measurement": "Recurrence (x/4)", "setting": "MINK1", "value": 1, "unit": "x/4"},
      {"measurement": "Recurrence (x/4)", "setting": "PCSK5", "value": 1, "unit": "x/4"},
      {"measurement": "Recurrence (x/4)", "setting": "PRAF2", "value": 1, "unit": "x/4"},
      {"measurement": "Recurrence (x/4)", "setting": "REEP6; [1]", "value": 4, "unit": "x/4"},
      {"measurement": "Recurrence (x/4)", "setting": "REEP6; [2]", "value": 3, "unit": "x/4"},
      {"measurement": "Recurrence (x/4)", "setting": "RTN3", "value": 1, "unit": "x/4"},
      {"measurement": "Recurrence (x/4)", "setting": "SEC61G; [1]", "value": 2, "unit": "x/4"},
      {"measurement": "Recurrence (x/4)", "setting": "SEC61G; [2]", "value": 1, "unit": "x/4"},
      {"measurement": "Recurrence (x/4)", "setting": "SEMA4G", "value": 1, "unit": "x/4"},
      {"measurement": "Recurrence (x/4)", "setting": "SSNA1; [1]", "value": 4, "unit": "x/4"},
      {"measurement": "Recurrence (x/4)", "setting": "SSNA1; [2]", "value": 2, "unit": "x/4"},
      {"measurement": "Recurrence (x/4)", "setting": "SSR3", "value": 1, "unit": "x/4"},
      {"measurement": "Recurrence (x/4)", "setting": "TBL2; [1]", "value": 3, "unit": "x/4"},
      {"measurement": "Recurrence (x/4)", "setting": "TBL2; [2]", "value": 2, "unit": "x/4"},
      {"measurement": "Recurrence (x/4)", "setting": "TMPRSS13", "value": 1, "unit": "x/4"},
      {"measurement": "Recurrence (x/4)", "setting": "UBQLN2; [1]", "value": 1, "unit": "x/4"},
      {"measurement": "Recurrence (x/4)", "setting": "UBQLN2; [2]", "value": 1, "unit": "x/4"},
      {"measurement": "Recurrence (x/4)", "setting": "VAPA; [1]", "value": 1, "unit": "x/4"},
      {"measurement": "Recurrence (x/4)", "setting": "VAPA; [2]", "value": 1, "unit": "x/4"},
      {"measurement": "Recurrence (x/4)", "setting": "ZMPSTE24", "value": 1, "unit": "x/4"}
    ]}
  ]
}
